pIC50: −log10 of the molar value.
Target: Human Factor D (Homo sapiens (Human), UniProt P00746)
Assay: Human Factor D Assay
Type: biochemical
Conditions: Table 6; Factor D 80 nM, substrate Z-L-Lys-SBz; read-out: IC50
Summary of the method: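 Thioester substrate Z-L-Lys-SBz (100 μM) with Ellman's reagent DTNB (100 μM) reports activity of 80 nM human serum-derived enzyme, kinetically at 405 nm over 30 min. Compound preincubated 5 min, room temperature, pH 7.5 Tris/1 M NaCl; IC50 by nonlinear fit of rates.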

Human Factor D, sequence (P00746 26-253): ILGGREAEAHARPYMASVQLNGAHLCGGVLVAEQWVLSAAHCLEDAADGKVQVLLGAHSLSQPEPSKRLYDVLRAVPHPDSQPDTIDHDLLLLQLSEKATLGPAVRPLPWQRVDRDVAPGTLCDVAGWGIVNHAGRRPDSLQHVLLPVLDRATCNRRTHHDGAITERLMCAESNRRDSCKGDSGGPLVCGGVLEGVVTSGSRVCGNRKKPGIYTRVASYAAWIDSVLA

`CC(=O)c1nn(CC(=O)N2[C@H](C(=O)NCCOC(F)(F)F)C[C@@]3(C)C[C@@H]23)c2c(C)cc(-c3cnc(C)nc3)cc12` [Compound 81, (1R,3S,5R)-2-(2-(3-Acetyl-7-methyl-5-(2-methylpyrimidin-5-yl)-1H-indazol-1-yl)acetyl)-5-methyl-N-(2-(trifluoromethoxy)ethyl)-2-azabicyclo[3.1.0]hexane-3-carboxamide] and `CC(=O)c1nn(CC(=O)N2[C@H](C(=O)Nc3cccc(O)n3)C[C@@]3(C)C[C@@H]23)c2c(C)cc(-c3cnc(C)nc3)cc12` [Compound 105, (1R,3S,5R)-2-(2-(3-Acetyl-7-methyl-5-(2-methylpyrimidin-5-yl)-1H-indazol-1-yl)acetyl)-N-(6-hydroxypyridin-2-yl)-5-methyl-2-azabicyclo[3.1.0]hexane-3-carboxamide] cannot be ordered by pIC50: over 6.00 for the first, over 6.00 for the second.

`COc1cccc(NC(=O)[C@@H]2C[C@@]3(C)C[C@H]3N2C(=O)Cn2nc(C(C)=O)c3cc(-c4cnc(C)nc4)cc(C)c32)n1` [Compound 82, (1R,3S,5R)-2-(2-(3-Acetyl-7-methyl-5-(2-methylpyrimidin-5-yl)-1H-indazol-1-yl)acetyl)-N-(6-methoxypyridin-2-yl)-5-methyl-2-azabicyclo[3.1.0]hexane-3-carboxamide] and `CC(=O)c1nn(CC(=O)N2[C@H]3C[C@@]3(C)C[C@H]2C(=O)Nc2nc(Br)ccc2C)c2c(C3CC3)cc(-c3cnc(C)nc3)cc12` [Compound 90, (1S,3S,5S)-2-(2-(3-acetyl-7-cyclopropyl-5-(2-methylpyrimidin-5-yl)-1H-indazol-1-yl)acetyl)-N-(6-bromo-3-methylpyridin-2-yl)-5-methyl-2-azabicyclo[3.1.0]hexane-3-carboxamide] cannot be ordered by pIC50: over 6.00 for the first, over 6.00 for the second.

Compared with `CC(=O)c1nn(CC(=O)N2C[C@H](F)C[C@H]2C(=O)Nc2cccc(O)n2)c2ccc(-c3cnc(C)nc3)cc12` [Compound 83, (2S,4R)-1-(2-(3-Acetyl-5-(2-methylpyrimidin-5-yl)-1H-indazol-1-yl)acetyl)-4-fluoro-N-(6-hydroxypyridin-2-yl)pyrrolidine-2-carboxamide], `COc1ncc(-c2ccc3c(c2)c(C(C)=O)nn3CC(=O)N2[C@H](C(=O)Nc3cccc(Br)n3)C[C@@]3(C)C[C@@H]23)cn1` [Compound 108, (1R,3S,5R)-2-(2-(3-Acetyl-5-(2-methoxypyrimidin-5-yl)-1H-indazol-1-yl)acetyl)-N-(6-bromopyridin-2-yl)-5-methyl-2-azabicyclo[3.1.0]hexane-3-carboxamide] is higher in pIC50: 5.00 to 6.00 for the first, over 6.00 for the second. The second is the more potent here.

Going from `COCc1ccc(Br)c(NC(=O)[C@@H]2C[C@@]3(C)C[C@H]3N2C(=O)Cn2nc(C(C)=O)c3cc(-c4cnc(C)nc4)cc(COC)c32)n1` [Compound 86, (1R,3S,5R)-2-(2-(3-acetyl-7-(methoxymethyl)-5-(2-methylpyrimidin-5-yl)-1H-indazol-1-yl)acetyl)-N-(3-bromo-6-(methoxymethyl)pyridin-2-yl)-5-methyl-2-azabicyclo[3.1.0]hexane-3-carboxamide] to `COC[C@@]12C[C@@H](C(=O)Nc3nc(Br)ccc3C)N(C(=O)Cn3nc(C(C)=O)c4cc(-c5cnc(C)nc5)cc(C)c43)[C@@H]1C2` [Compound 98, (1R,3S,5S)-2-(2-(3-Acetyl-7-methyl-5-(2-methylpyrimidin-5-yl)-1H-indazol-1-yl)acetyl)-N-(6-bromo-3-methylpyridin-2-yl)-5-(methoxymethyl)-2-azabicyclo[3.1.0]hexane-3-carboxamide], the pIC50 rises from under 5.00 to over 6.00. The second is the more potent here.

`CC(=O)c1nn(CC(=O)N2[C@H](C(=O)Nc3nc(Br)ccc3C)C[C@@]3(CN4CCNCC4)C[C@@H]23)c2c(C)cc(-c3cnc(C)nc3)cc12` [Compound 88, (1R,3S,5R)-2-(2-(3-Acetyl-7-methyl-5-(2-methylpyrimidin-5-yl)-1H-indazol-1-yl)acetyl)-N-(6-bromo-3-methylpyridin-2-yl)-5-(piperazin-1-ylmethyl)-2-azabicyclo[3.1.0]hexane-3-carboxamide] and `CC(=O)c1nn(CC(=O)N2[C@H](C(=O)Nc3nc(Br)ccc3C)C[C@@]3(CN4CC5(CCC5)C4)C[C@@H]23)c2c(C)cc(-c3cnc(C)nc3)cc12` [Compound 89, (1R,3S,5R)-5-(2-Azaspiro[3.3]heptan-2-ylmethyl)-2-(2-(3-acetyl-7-methyl-5-(2-methylpyrimidin-5-yl)-1H-indazol-1-yl)acetyl)-N-(6-bromo-3-methylpyridin-2-yl)-2-azabicyclo[3.1.0]hexane-3-carboxamide] cannot be ordered by pIC50: over 6.00 for the first, over 6.00 for the second.

`CC(=O)c1nn(CC(=O)N2[C@H](C(=O)Nc3nc(Br)ccc3CN(C)C)C[C@@]3(C)C[C@@H]23)c2ccc(-c3cnc(C)nc3)cc12` [Compound 91] and `CC(=O)c1nn(CC(=O)N2[C@H](C(=O)Nc3nc(Br)ccc3C)C[C@@]3(C)C[C@@H]23)c2ccc(-c3cnc(CN(C)C)nc3)cc12` [Compound 103, (1R,3S,5R)-2-(2-(3-Acetyl-5-(2-((dimethylamino)methyl)pyrimidin-5-yl)-1H-indazol-1-yl)acetyl)-N-(6-bromo-3-methylpyridin-2-yl)-5-methyl-2-azabicyclo[3.1.0]hexane-3-carboxamide] cannot be ordered by pIC50: over 6.00 for the first, over 6.00 for the second.

`C=CCOC[C@@]12C[C@@H](C(=O)Nc3nc(Br)ccc3C=C)N(C(=O)Cn3nc(C(C)=O)c4cc(-c5cnc(C)nc5)ccc43)[C@@H]1C2` [Compound 93, (1R,3S,5S)-2-(2-(3-Acetyl-5-(2-methylpyrimidin-5-yl)-1H-indazol-1-yl)acetyl)-5-((allyloxy)methyl)-N-(6-bromo-3-vinylpyridin-2-yl)-2-azabicyclo[3.1.0]hexane-3-carboxamide] and `CNC[C@@]12C[C@@H](C(=O)Nc3nc(Br)ccc3C)N(C(=O)Cn3nc(C(C)=O)c4cc(-c5cnc(C)nc5)cc(C)c43)[C@@H]1C2` [Compound 94, (1R,3S,5R)-2-(2-(3-Acetyl-7-methyl-5-(2-methylpyrimidin-5-yl)-1H-indazol-1-yl)acetyl)-N-(6-bromo-3-methylpyridin-2-yl)-5-((methylamino)methyl)-2-azabicyclo[3.1.0]hexane-3-carboxamide] cannot be ordered by pIC50: over 6.00 for the first, over 6.00 for the second.

`CC(=O)c1nn(CC(=O)N2[C@H](C(=O)Nc3nc(Br)ccc3C)C[C@@]3(CNC(=O)C4=C(F)CCC4)C[C@@H]23)c2c(C)cc(-c3cnc(C)nc3)cc12` [Compound 95, (1R,3S,5R)-2-(2-(3-Acetyl-7-methyl-5-(2-methylpyrimidin-5-yl)-1H-indazol-1-yl)acetyl)-N-(6-bromo-3-methylpyridin-2-yl)-5-((2-fluorocyclopent-1-enecarboxamido)methyl)-2-azabicyclo[3.1.0]hexane-3-carboxamide] and `CC(=O)NC[C@@]12C[C@@H](C(=O)Nc3nc(Br)ccc3C)N(C(=O)Cn3nc(C(C)=O)c4cc(-c5cnc(C)nc5)cc(C)c43)[C@@H]1C2` [Compound 96, (1R,3S,5R)-5-(Acetamidomethyl)-2-(2-(3-acetyl-7-methyl-5-(2-methylpyrimidin-5-yl)-1H-indazol-1-yl)acetyl)-N-(6-bromo-3-methylpyridin-2-yl)-2-azabicyclo[3.1.0]hexane-3-carboxamide] cannot be ordered by pIC50: over 6.00 for the first, over 6.00 for the second.

`CC(=O)c1nn(CC(=O)N2[C@H](C(=O)Nc3nc(Br)ccc3C)C[C@@]3(CNC(=O)c4ccccc4F)C[C@@H]23)c2c(C)cc(-c3cnc(C)nc3)cc12` [Compound 97, (1R,3S,5R)-2-(2-(3-Acetyl-7-methyl-5-(2-methylpyrimidin-5-yl)-1H-indazol-1-yl)acetyl)-N-(6-bromo-3-methylpyridin-2-yl)-5-((2-fluorobenzamido)methyl)-2-azabicyclo[3.1.0]hexane-3-carboxamide] and `CC(=O)c1nn(CC(=O)N2[C@H](C(=O)Nc3nc(Br)ccc3C)C[C@@]3(CNC(=O)CC(F)(F)F)C[C@@H]23)c2c(C)cc(-c3cnc(C)nc3)cc12` [Compound 102, (1R,3S,5R)-2-(2-(3-Acetyl-7-methyl-5-(2-methylpyrimidin-5-yl)-1H-indazol-1-yl)acetyl)-N-(6-bromo-3-methylpyridin-2-yl)-5-((3,3,3-trifluoropropanamido)methyl)-2-azabicyclo[3.1.0]hexane-3-carboxamide] cannot be ordered by pIC50: over 6.00 for the first, over 6.00 for the second.

`COC(=O)N[C@H](C(=O)NC[C@@]12C[C@@H](C(=O)Nc3nc(Br)ccc3C)N(C(=O)Cn3nc(C(C)=O)c4cc(-c5cnc(C)nc5)cc(C)c43)[C@@H]1C2)C(C)C` [Compound 99, methyl ((S)-1-((((lR,3S,5R)-2-(2-(3-acetyl-7-methyl-5-(2-methylpyrimidin-5-yl)-1H-indazol-1-yl)acetyl)-3-((6-bromo-3-methylpyridin-2-yl)carbamoyl)-2-azabicyclo[3.1.0]hexan-5-yl)methyl)amino)-3-methyl-1-oxobutan-2-yl)carbamate] and `CC(=O)c1nn(CC(=O)N2[C@H](C(=O)Nc3nc(Br)ccc3C)C[C@@]3(CNS(C)(=O)=O)C[C@@H]23)c2c(C)cc(-c3cnc(C)nc3)cc12` [Compound 101, (1R,3S,5R)-2-(2-(3-Acetyl-7-methyl-5-(2-methylpyrimidin-5-yl)-1H-indazol-1-yl)acetyl)-N-(6-bromo-3-methylpyridin-2-yl)-5-(methylsulfonamidomethyl)-2-azabicyclo[3.1.0]hexane-3-carboxamide] cannot be ordered by pIC50: over 6.00 for the first, over 6.00 for the second.

`CC(=O)c1nn(CC(=O)N2[C@H](C(=O)Nc3nc(Br)ccc3C)C[C@@]3(CN(C)C)C[C@@H]23)c2c(C)cc(-c3cnc(C)nc3)cc12` [Compound 100, (1R,3S,5R)-2-(2-(3-acetyl-7-methyl-5-(2-methylpyrimidin-5-yl)-1H-indazol-1-yl)acetyl)-N-(6-bromo-3-methylpyridin-2-yl)-5-((dimethylamino)methyl)-2-azabicyclo[3.1.0]hexane-3-carboxamide] and `CC(=O)c1nn(CC(=O)N2[C@H](C(=O)Nc3nc(Br)c(F)cc3C)C[C@@]3(C)C[C@@H]23)c2cnc(-c3cnc(C)nc3)cc12` [Compound 104, (1R,3S,5R)-2-(2-(3-Acetyl-5-(2-methylpyrimidin-5-yl)-1H-pyrazolo[3,4-c]pyridin-1-yl)acetyl)-N-(6-bromo-5-fluoro-3-methylpyridin-2-yl)-5-methyl-2-azabicyclo[3.1.0]hexane-3-carboxamide] cannot be ordered by pIC50: over 6.00 for the first, over 6.00 for the second.
